# Test results reported in ChEMBL document CHEMBL2062378, “Antimycobacterial activity: a facile three-component [3+2]-cycloaddition for the regioselective synthesis of highly functionalised dispiropyrrolidines” (Bioorg Med Chem Lett, 2012).
# System: Mycobacterium tuberculosis
# Test: Antimycobacterial activity against INH-resistant Mycobacterium tuberculosis by alamar blue broth microdilution assay
# Format: functional
row,SMILES,MIC90
1,CN1CC(c2cncc(-c3ccc(F)cc3)c2)C2(Cc3ccccc3C2=O)C12C(=O)c1ccccc1C2=O (stereo not drawn),5.12 µM
2,CN1CC(c2cccc3c2OCO3)C2(Cc3ccccc3C2=O)C12C(=O)c1ccccc1C2=O (stereo not drawn),32.4 µM
3,CN1CC(c2ccc(Cl)cc2)C2(Cc3ccccc3C2=O)C12C(=O)c1ccccc1C2=O (stereo not drawn),24.2 µM
4,COc1ccc(C2CN(C)C3(C(=O)c4ccccc4C3=O)C23Cc2ccccc2C3=O)cc1 (stereo not drawn),> 6.25 µM
5,CN(C)c1ccc(C2CN(C)C3(C(=O)c4ccccc4C3=O)C23Cc2ccccc2C3=O)cc1 (stereo not drawn),43.3 µM
6,CN1CC(c2ccc(N3CCOCC3)cc2)C2(Cc3ccccc3C2=O)C12C(=O)c1ccccc1C2=O (stereo not drawn),27.2 µM
7,CN1CC(c2ccc(C(=O)O)cc2)C2(Cc3ccccc3C2=O)C12C(=O)c1ccccc1C2=O (stereo not drawn),18.3 µM
8,CN1CC(c2ccccc2)C2(Cc3ccccc3C2=O)C12C(=O)c1ccccc1C2=O (stereo not drawn),26.2 µM
9,CN1CC(c2ccc(OC(F)(F)F)cc2)C2(Cc3ccccc3C2=O)C12C(=O)c1ccccc1C2=O (stereo not drawn),12.2 µM
10,CN1CC(c2cccc([N+](=O)[O-])c2)C2(Cc3ccccc3C2=O)C12C(=O)c1ccccc1C2=O (stereo not drawn),16.8 µM
11,CN1CC(c2ccc(C(F)(F)F)cc2)C2(Cc3ccccc3C2=O)C12C(=O)c1ccccc1C2=O (stereo not drawn),13.6 µM
12,NNC(=O)c1ccncc1 [ISONIAZID],11.2 µM
13,CN1CC(c2ccc(Br)cc2)C2(Cc3ccccc3C2=O)C12C(=O)c1ccccc1C2=O (stereo not drawn),21.4 µM
